Data reported in PubChem BioAssay (NCI).
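Values below derive from 48-hour exposures of cells grown in 96-well plates, with endpoints linearly interpolated between the two concentrations bracketing the appropriate inhibition level. TGI marks complete inhibition of growth.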

Tests used:
Assay in all cases: DTP human tumour cell line panel, 48 h
SF-295 CNS = tested on: SF-295 CNS
NCI-H226 lung = tested on: NCI-H226 lung
UACC-257 melanoma = tested on: UACC-257 melanoma
NCI-H460 lung = tested on: NCI-H460 lung
EKVX NSCLC = tested on: EKVX NSCLC
NCI-H522 lung = tested on: NCI-H522 lung
HCC-2998 colon = tested on: HCC-2998 colon
HCT-116 colon = tested on: HCT-116 colon
U251 CNS = tested on: U251 CNS

Row | Structure (SMILES) | TGI (SF-295 CNS) | TGI (NCI-H226 lung) | TGI (UACC-257 melanoma) | TGI (NCI-H460 lung) | TGI (EKVX NSCLC) | TGI (NCI-H522 lung) | TGI (HCC-2998 colon) | TGI (HCT-116 colon) | TGI (U251 CNS)
1 | CN1c2ccccc2N(C(=O)c2ccc([N+](=O)[O-])cc2)C(CC(=O)O)c2cccn21 (configuration not stated) | > 100 µM | > 100 µM | > 100 µM | > 100 µM | > 100 µM | > 100 µM | > 100 µM |  | 
2 | Cc1cn(C2CC(O)C(COC(=O)c3ccccc3)O2)c(=O)[nH]c1=O (configuration not stated) | > 100 µM |  | > 100 µM | > 100 µM |  | > 100 µM | > 100 µM | > 100 µM | > 100 µM
3 | Nc1ncnc2c1ncn2[C@]1(CO)C=C(CO)C(O)C1O (some centres not stated) | > 100 µM | > 100 µM | > 100 µM | > 100 µM |  | > 100 µM | > 100 µM | > 100 µM | > 100 µM
4 | CN(CCN1C(=O)c2cc([N+](=O)[O-])cc3cc([N+](=O)[O-])cc(c23)C1=O)CCN1C(=O)c2cc([N+](=O)[O-])cc3cc([N+](=O)[O-])cc(c23)C1=O | > 100 µM | 9.69 µM | 9.42 µM |  | > 100 µM | 1.86 µM | 23.8 µM | 9.18 µM | > 100 µM
5 | O=C(N/C(=C\c1ccc(Cl)cc1)c1nc2ccccc2[nH]1)c1ccccc1 |  | 44.9 µM | 46.2 µM | 49.7 µM | 58.1 µM | 30.7 µM |  | 29.1 µM | 53.1 µM
6 | COc1ccc(C2=C(Cl)c3cc(OC)c(OC)cc3C2OC)cc1OC (configuration not stated) | > 100 µM | > 100 µM | > 100 µM | > 100 µM | > 100 µM | > 100 µM | > 100 µM | > 100 µM | 
7 | Cn1c2c(c3ccccc31)CCN(CCCCN1CCCCC1)C2=O | > 100 µM |  | > 100 µM | > 100 µM | > 100 µM | > 100 µM |  | > 100 µM | > 100 µM
8 | CC(=O)OCC1OC(n2cc(F)c(=O)[nH]c2=O)C(NC(=O)N(CCCl)N=O)C(OC(C)=O)C1OC(C)=O (configuration not stated) | > 100 µM |  | > 100 µM | > 100 µM |  | > 100 µM |  | > 100 µM | > 100 µM
9 | CN1C(=O)CCC1(O)C1C=CC=CC1 (configuration not stated) | > 100 µM | > 100 µM | > 100 µM | > 100 µM |  | > 100 µM | > 100 µM | > 100 µM | > 100 µM
10 | N#Cc1c(-c2ccc(Cl)c(Cl)c2)c(-c2ccc(Cl)c(Cl)c2)nn(CC(=O)O)c1=O | > 100 µM | > 100 µM | > 100 µM | > 100 µM | > 100 µM |  | > 100 µM | > 100 µM | > 100 µM
11 | Cc1ccc(S(=O)(=O)OCCn2cnc3nc(NC(=O)c4ccccc4)[nH]c(=O)c32)cc1 | > 100 µM | > 100 µM | > 100 µM | > 100 µM | > 100 µM | > 100 µM |  | > 100 µM | > 100 µM
